According to patent US9408885B2, “Combinations of therapeutic agents for treating melanoma” (VIB VZW, priority 2011, dated 2016):

Experiments:
[1] = tested on: MDM4 protein in 451-lu cells; experiment: MDM4 protein expression level, 451-lu; format: cell-based, human; conditions: 5 μM, 24 hours
Description: (§1) FIG. 4: AKT inhibitors destabilize the MDM4 protein levels in melanomas.
(§2) In the present example we applied the Akt IV inhibitor on two different melanoma cell lines (i.e., the human amelanotic melanoma cell line A375 and the metastatic 451-lu human melanoma cell line, the latter also described in D. Herlyn et al. (1990), Cancer Research 50, 2296-2302).
(§3) Cells, adult tissue samples, or tumors were lysed in Giordano buffer (50 mM Tris-HCl (pH 7.4); 250 mM NaCl; 0.1% Triton X-100; 5 mM EDTA) containing phosphatase and protease inhibitors (Sigma). The adult tissue samples were sonicated three times 10 sec. The protein concentration was determined by Bradford assay (OD 595 nm; Bio-Rad Protein Assay) and 40 μg of each sample were fractionated by SDS-PAGE (Invitrogen; NuPAGE® Novex® 4-12% Bis-Tris Gel). The fractionated extracts were then transferred to a PVDF membrane (iBlot® Dry Blotting System). Membranes were blocked in Tris-buffered saline, 0.2% Tween-20 (TBST) containing 5% or 10% non-fat dry milk, and subsequently incubated with the appropriate primary antibody. […] After five washes with TBST, proteins were detected by enhanced chemiluminescense “ECL Western Blotting Detection Reagents” (Amersham Biosciences) or “SuperSignal West Femto Maximum Sensitivity Substrate” (Thermo Scientific) and visualized by exposure to X-ray film (Amersham Biosciences). […]

[2] = tested on: MDM4 protein in A375 cells; experiment: MDM4 protein expression level, A375; format: cell-based, human; conditions: A375, 5 μM, 24 hours
Description: as §1, §2, §3

[3] = tested on: MM011 melanoma cells; conditions: MM011, 6.25-50 μM Cisplatin or 25-200 μM Melphalan, 24 hours
Description: (§4) Cell viability was measured at 24 hours by CellTiter-Glo assay. Data represent the mean (±SD) of at least three biological replicates. […] Data represent the mean (±SD) of at least three biological replicates. […] Data represent the mean (±SD) of at least three biological replicates.

[4] = tested on: MM031 melanoma cells; conditions: MM031, 6.25-50 μM Cisplatin or 25-200 μM Melphalan, 24 hours
Description: as §4

[5] = tested on: p53 pathway in MM cell lines overexpressing MDM4; experiment: p53 tumor suppressor response (p53 and p21 protein levels) in short-term cultured melanoma cell lines; format: cell-based, human; conditions: all but one (MM87) of the cell lines overexpressing MDM4; nutlin-3 at high concentrations
Description: Cells, adult tissue samples, or tumors were lysed in Giordano buffer (50 mM Tris-HCl (pH 7.4); 250 mM NaCl; 0.1% Triton X-100; 5 mM EDTA) containing phosphatase and protease inhibitors (Sigma). The adult tissue samples were sonicated three times 10 sec. […] The fractionated extracts were then transferred to a PVDF membrane (iBlot® Dry Blotting System). Membranes were blocked in Tris-buffered saline, 0.2% Tween-20 (TBST) containing 5% or 10% non-fat dry milk, and subsequently incubated with the appropriate primary antibody. Membranes were washed five times with TBST and incubated with either horseradish peroxidase-conjugated horse anti-mouse or goat anti-rabbit secondary antibody (Cell Signaling). After five washes with TBST, proteins were detected by enhanced chemiluminescense “ECL Western Blotting Detection Reagents” (Amersham Biosciences) or “SuperSignal West Femto Maximum Sensitivity Substrate” (Thermo Scientific) and visualized by exposure to X-ray film (Amersham Biosciences).

Structure (SMILES)	growth inhibition, alkylating agent alone [3]	growth inhibition, alkylating agent alone [4]	p53 protein levels and p21 expression [5]	also measured
CC[n+]1c(/C=C/N(C)c2ccccc2)n(-c2ccccc2)c2ccc(-c3nc4ccccc4s3)cc21.[I-] [Akt IV inhibitor]				protein expression level of MDM4 [1]: down-regulate; protein expression level of MDM4 [2]: down-regulate
N.N.[Cl][Pt][Cl] [cisplatin]	variable growth inhibition effects	variable growth inhibition effects		
COc1cccc2c1C(=O)c1c(O)c3c(c(O)c1C2=O)C[C@@](O)(C(=O)CO)C[C@@H]3O[C@H]1C[C@H](N)[C@H](O)[C@H](C)O1 [doxorubicin]			increased p53 protein levels and induction of expression of p21	
N[C@@H](Cc1ccc(N(CCCl)CCCl)cc1)C(=O)O [melphalan]	variable growth inhibition effects	variable growth inhibition effects		
COc1ccc(C2=N[C@@H](c3ccc(Cl)cc3)[C@@H](c3ccc(Cl)cc3)N2C(=O)N2CCNC(=O)C2)c(OC(C)C)c1 [nutlin-3]			increased p53 protein levels and induction of expression of p21	
